Converted amounts (≈) assume the structure as drawn.
How the values were obtained:
Type in all cases: cell-based
[1] = tested on: Staphylococcus aureus (ATCC25923); assay: Microtitre plate assay, IC90 determination, STA 25923; conditions: 90% inhibitory concentration for bacterial growth, 37° C., resazurin fluorescence
Experimental: (§1) The bacteria used in this study were grown overnight in flasks containing 100 ml Mueller-Hinton Broth (Becton Dickinson—cat. no. 275730) in sterile de-ionized water, with shaking, at 37° C. Stocks (0.5 ml/tube) were stored at −70° C. until use. Bacteria titrations were performed in microtiter plates to detect the TCID50, in which the TCID50 represents the dilution that gives rise to bacterial growth in 50% of inoculated cultures.
(§2) In general, an inoculum level of approximately 100 TCID50 was used for susceptibility testing.
(§3) Flat-bottom, sterile 96-well plastic microtiter plates were filled with 180 μl of sterile deionized water, supplemented with 0.25% BSA. Subsequently, stock solutions (7.8× final test concentration) of compounds were added in 45 μl volumes in column 2. Serial five-fold dilutions (45 μl in 180 μl) were made directly in the microtiter plates from column 2 to reach column 11. Untreated control samples with (column 1) and without (column 12) inoculum were included in each microtiter plate. Depending on the bacteria type, approximately 10 to 60 CFU per well of bacteria inoculum (100 TCID50), in a volume of 100 μl in 2.8× Mueller-Hinton broth medium, was added to the rows A to H, except column 12. The same volume of broth medium without inoculum was added to column 12 in row A to H. The cultures were incubated at 37° C. for 24 hours under a normal atmosphere (incubator with open air valve and continuous ventilation). At the end of incubation, one day after inoculation, the bacterial growth was quantitated fluorometrically. Therefore resazurin (0.6 mg/ml) was added in a volume of 20 μl to all wells 3 hours after inoculation, and the plates were re-incubated overnight. A change in colour from blue to pink indicated the growth of bacteria. The fluorescence was read in a computer-controlled fluorometer (Cytofluor Biosearch) at an excitation wavelength of 530 nm and an emission wavelength of 590 nm. The % growth inhibition achieved by the compounds was calculated according to standard methods. The IC90 (expressed in μg/ml) was defined as the 90% inhibitory concentration for bacterial growth.
(§4) BSU 3639 means Bacillus subtilis (ATCC43639); ECO 25922 means Escherichia coli (ATCC25922); EFA 14506 means Enterococcus faecalis (ATCC14506); EFA 29212 means Enterococcus faecalis (ATCC29212); LMO 49594 means Listeria monocytogenes (ATCC49594); PAE 27853 means Pseudomonas aeruginosa (ATCC27853); SMU 33402 means Streptococcus mutans (ATCC33402); SPN 6305 means Streptococcus pneumoniae (ATCC6305); SPY 8668 means Streptococcus pyogens (ATCC8668); STA 43300 means Staphylococcus aureus (ATCC43300); STA 25923 means Staphylococcus aureus (ATCC25923); STA 29213 means Staphylococcus aureus (ATCC29213); STA RMETH means methicilline resistant Staphylococcus aureus (MRSA) (a clinical isolate from the University of Antwerp). ATCC means American type tissue culture.

[2] = tested on: Streptococcus pneumoniae (ATCC6305); assay: Microtitre plate assay, IC90 determination, SPN 6305; conditions: 90% inhibitory concentration for bacterial growth, 37° C., resazurin fluorescence; for IC90 (μg/ml) SPN 6305: 24 hours; for IC90: Streptococcus pneumoniae, ATCC6305, 24 h, read-out: IC90 (μg/ml) SPN 6305
Experimental: as §1, §2, §3, §4

[3] = tested on: Enterococcus faecalis (ATCC29212); assay: Microtitre plate assay, IC90 determination, EFA 29212; conditions: 90% inhibitory concentration for bacterial growth, 37° C., resazurin fluorescence; for IC90 (μg/ml) EFA 29212: 24 hours; for IC90: Enterococcus faecalis, ATCC29212, 24 h, read-out: IC90 (μg/ml) EFA 29212
Experimental: as §1, §2, §3, §4

[4] = tested on: Listeria monocytogenes (ATCC49594); assay: Microtitre plate assay, IC90 determination, LMO 49594; conditions: 90% inhibitory concentration for bacterial growth, 37° C., resazurin fluorescence; for IC90 (μg/ml) LMO 49594: 24 hours; for IC90: Listeria monocytogenes, ATCC49594, 24 h, read-out: IC90 (μg/ml) LMO 49594
Experimental: as §1, §2, §3, §4

[5] = tested on: Bacillus subtilis (ATCC43639); assay: Microtitre plate assay, IC90 determination, BSU 43639; conditions: 90% inhibitory concentration for bacterial growth, 37° C., resazurin fluorescence; for IC90 (μg/ml) BSU 43639: 24 hours; for IC90: Bacillus subtilis, ATCC43639, 24 h, read-out: IC90 (μg/ml) BSU 43639
Experimental: as §1, §2, §3, §4

[6] = tested on: Pseudomonas aeruginosa (ATCC27853); assay: Microtitre plate assay, IC90 determination, PAE 27853; conditions: 90% inhibitory concentration for bacterial growth, 37° C., resazurin fluorescence; for IC90: Pseudomonas aeruginosa, ATCC27853, 24 h, read-out: IC90 (μg/ml) PAE 27853
Experimental: as §1, §2, §3, §4

[7] = tested on: Streptococcus mutans (ATCC33402); assay: Microtitre plate assay, IC90 determination, SMU 33402; conditions: 90% inhibitory concentration for bacterial growth, 37° C., resazurin fluorescence; for IC90 (μg/ml) SMU 33402: 24 hours; for IC90: Streptococcus mutans, ATCC33402, 24 h, read-out: IC90 (μg/ml) SMU 33402
Experimental: as §1, §2, §3, §4

[8] = tested on: Staphylococcus aureus (ATCC43300); assay: Microtitre plate assay, IC90 determination, STA 43300; conditions: Staphylococcus aureus, ATCC43300, 24 h, 90% inhibitory concentration for bacterial growth, 37° C., resazurin fluorescence, read-out: IC90 (μg/ml) STA 43300
Experimental: as §1, §2, §3, §4

[9] = tested on: Streptococcus pyogens (ATCC8668); assay: Microtitre plate assay, IC90 determination, SPY 8668; conditions: 90% inhibitory concentration for bacterial growth, 37° C., resazurin fluorescence; for IC90 (μg/ml) SPY 8668: 24 hours; for IC90: Streptococcus, ATCC8668, 24 h, read-out: IC90 (μg/ml) SPY 8668
Experimental: as §1, §2, §3, §4

Structure (SMILES) | IC90 (μg/ml) SPN 6305 [2] | IC90 (μg/ml) EFA 29212 [3] | IC90 (μg/ml) LMO 49594 [4] | IC90 [6] | IC90 [3] | IC90 [4] | IC90 [8] | IC90 [7] | other results
CCNCCC(O)(c1ccc(F)cc1F)C(c1ccccc1)c1cc2cc(Br)ccc2nc1OC (racemic) [B] | – | – | – | – | – | – | – | – | IC90 (μg/ml) STA 25923 ([1]; 24 hours): 8.6 µg/mL (≈ 15.9 µM)
COc1nc2ccc(Br)cc2cc1C(c1ccccc1)C(O)(CCN1CCN(C)CC1)c1ccc2ccccc2c1 (racemic) [Compound 136] | – | 10.6 µg/mL (≈ 17.4 µM) | 10.6 µg/mL (≈ 17.4 µM) | – | – | – | – | – | IC90 (μg/ml) BSU 43639 [5]: 10.6 µg/mL (≈ 17.4 µM)
COc1nc2ccc(Br)cc2cc1C(c1ccccc1)C(O)(CCN(C)C)c1ccc(Cl)cc1 (stereo not drawn) [Compound 16] | – | – | – | 13.6 µg/mL (≈ 25.2 µM) | – | – | – | – | –
COc1nc2ccc(Br)cc2cc1C(c1ccccc1)C(O)(CCN(C)C)c1cccs1 (stereo not drawn) [Compound 21] | 12.8 µg/mL (≈ 25 µM) | – | – | – | 11.5 µg/mL (≈ 22.5 µM) | 4.6 µg/mL (≈ 8.99 µM) | 12.8 µg/mL (≈ 25 µM) | 11.5 µg/mL (≈ 22.5 µM) | –
COc1nc2ccc(-c3ccccc3)cc2cc1C(c1ccccc1)C(O)(CCN(C)C)c1ccccc1 (stereo not drawn) [Compound 26] | 5.6 µg/mL (≈ 11.1 µM) | – | – | 2 µg/mL (≈ 3.98 µM) | 4.5 µg/mL (≈ 8.95 µM) | 4.5 µg/mL (≈ 8.95 µM) | 11.3 µg/mL (≈ 22.5 µM) | 11.3 µg/mL (≈ 22.5 µM) | IC90 ([1]; Staphylococcus aureus, ATCC25923, 24 h, read-out: IC90 (μg/ml) STA 25923): 8.9 µg/mL (≈ 17.7 µM); IC90 [5]: 10 µg/mL (≈ 19.9 µM); IC90 [9]: 2.5 µg/mL (≈ 4.97 µM)
COc1nc2ccc(Cl)cc2cc1C(c1ccccc1)C(O)(CCN(C)C)c1ccccc1 (stereo not drawn) [Compound 30] | 5.2 µg/mL (≈ 11.3 µM) | 10.3 µg/mL (≈ 22.3 µM) | 10.3 µg/mL (≈ 22.3 µM) | – | – | – | – | – | IC90 (μg/ml) PAE 27853 ([6]; 24 hours): 9.2 µg/mL (≈ 20 µM); IC90 (μg/ml) SMU 33402 [7]: 10.3 µg/mL (≈ 22.3 µM); IC90 (μg/ml) SPY 8668 [9]: 10.3 µg/mL (≈ 22.3 µM)
COc1nc2ccc(Cl)cc2cc1C(c1ccccc1)C(O)(CCN(C)C)c1ccccc1 (stereo not drawn) [Compound 31] | – | 4.6 µg/mL (≈ 9.98 µM) | 4.1 µg/mL (≈ 8.89 µM) | 10.3 µg/mL (≈ 22.3 µM) | – | – | 11.6 µg/mL (≈ 25.2 µM) | 10.3 µg/mL (≈ 22.3 µM) | IC90 [2]: 5.2 µg/mL (≈ 11.3 µM); IC90 [5]: 10.3 µg/mL (≈ 22.3 µM); IC90 (μg/ml) SPY 8668 [9]: 1.8 µg/mL (≈ 3.9 µM)

The next lines start with results.

IC90 (μg/ml) SPN 6305 [2] | IC90 (μg/ml) EFA 29212 [3] | IC90 (μg/ml) LMO 49594 [4] | IC90 [6] | IC90 [3] | IC90 [4] | IC90 [8] | IC90 [7] | Structure (SMILES) | other results
5.6 µg/mL (≈ 9.99 µM) | 25.0 µg/mL (≈ 44.6 µM) | 25.0 µg/mL (≈ 44.6 µM) | – | – | – | – | – | COc1nc2ccc(Br)cc2cc1C(c1ccccc1)C(O)(CCN1CCN(C)CC1)c1ccccc1 (racemic) [Compound 51] | IC90 (μg/ml) BSU 43639 [5]: 28.1 µg/mL (≈ 50.1 µM)
5.7 µg/mL (≈ 11.3 µM) | – | – | 10.1 µg/mL (≈ 20 µM) | 11.3 µg/mL (≈ 22.4 µM) | 7.1 µg/mL (≈ 14 µM) | 12.7 µg/mL (≈ 25.1 µM) | – | COc1nc2ccc(Br)cc2cc1C(c1ccccc1)C(O)(CCN(C)C)c1ccccc1 (single isomer, unassigned) [E] | IC90 (μg/ml) SMU 33402 [7]: 10.1 µg/mL (≈ 20 µM); IC90 [5]: 12.7 µg/mL (≈ 25.1 µM); IC90 (μg/ml) SPY 8668 [9]: 5.1 µg/mL (≈ 10.1 µM)
– | – | – | 11.6 µg/mL (≈ 22.3 µM) | 11.6 µg/mL (≈ 22.3 µM) | 11.6 µg/mL (≈ 22.3 µM) | – | – | CCOc1nc2ccc(Br)cc2cc1C(c1ccccc1)C(O)(CCN(C)C)c1ccccc1 (stereo not drawn) [Compound 6] | IC90 [2]: 13 µg/mL (≈ 25 µM); IC90 (μg/ml) SMU 33402 [7]: 4.6 µg/mL (≈ 8.85 µM); IC90 [9]: 4.6 µg/mL (≈ 8.85 µM)
0.7 µg/mL (≈ 1.31 µM) | – | – | – | 13.3 µg/mL (≈ 24.9 µM) | 13.3 µg/mL (≈ 24.9 µM) | – | – | CCN(CC)CCC(O)(c1ccccc1)C(c1ccccc1)c1cc2cc(Br)ccc2nc1OC (stereo not drawn) [Compound 18] | –
12.8 µg/mL (≈ 25 µM) | – | – | – | 11.5 µg/mL (≈ 22.5 µM) | 11.5 µg/mL (≈ 22.5 µM) | 12.8 µg/mL (≈ 25 µM) | 11.5 µg/mL (≈ 22.5 µM) | COc1nc2ccc(Br)cc2cc1C(c1ccccc1)C(O)(CCN(C)C)c1ccsc1 (stereo not drawn) [Compound 25] | IC90 [9]: 4.1 µg/mL (≈ 8.02 µM)
12.6 µg/mL (≈ 25.1 µM) | – | 8.9 µg/mL (≈ 17.7 µM) | – | – | – | – | – | COc1nc2ccc(-c3ccccc3)cc2cc1C(c1ccccc1)C(O)(CCN(C)C)c1ccccc1 (stereo not drawn) [Compound 27] | IC90 (μg/ml) BSU 43639 [5]: 10.0 µg/mL (≈ 19.9 µM)

Reference: US7709498B2, “Quinoline derivatives as antibacterial agents” (Janssen Pharmaceutica N.V., priority 2005, dated 2010)
